Measured values taken from PMC11603770, “Validating anti-inflammatory and cytotoxic properties of Fagonia cretica L. through metabolic, in vitro, and in silico profiling” (BMC Complementary Medicine and Therapies, 2024).
In brackets after ≈: the same amount, converted by molar mass.

How the values were obtained:
Assay type in all cases: cell-based
[1] = test system: CACO2 cells (intestinal carcinoma cell line); assay: MTT viability assay, CACO2; details: Homo sapiens, Caco-2, 24 h
Procedure: The Cytotoxic activity was tested using the viability assay following the method reported by Mosmann, T., 1983 [21, 22]. HepG2 cells (liver carcinoma cell line), MCF-7cells (breast carcinoma cell line) and CACO2 cells (intestinal carcinoma cell line) (American Type Culture Collection ATCC, Rockville, MD) were applied through the tissue Culture Unit, the Egyptian Organization for Biological Products and Vaccines, Vacsera, Egypt. In brief, the tumor cell lines were suspended in medium at concentration 5 × 10^4 cell/ well in Corning® 96-well tissue culture plates and then incubated for 24 h. The alcoholic extract of F. cretica was then added into 96-well plates (three replicates) to achieve twelve concentrations. Six vehicle controls with media or 0.5% DMSO were run for each 96 well plate as a control. After incubating for 24 h, the number of viable cells was determined by the MTT test. Briefly, the media was removed from the 96 well plates and replaced with 100 µl of fresh culture RPMI 1640 medium without phenol red then 10 µl of the 12 mM MTT stock solution (5 mg of MTT in 1 ml of PBS) to each well including the untreated controls. […] Then, the optical density (OD) was measured at 590 nm with the microplate reader (SunRise, TECAN, Inc, USA) to determine the number of viable cells and the percentage of viability was calculated as follows: […]

Caspase-9 (human) = assay: Caspase-9 level ELISA in MCF-7
Procedure: To measure caspase-9 levels, DRG® Caspase-9 (human) ELISA (EIA-4860) kits were used. In brief, the breast cancer cell line (MCF-7) extracts were prepared after elevation of apoptosis. The extracts were suspended in lysis buffer, and incubated at room temperature for 60 min and then centrifuge for 15 min. The microwell strips were washed with 400 µl wash buffer, followed by addition of 100 µl of sample diluent in duplicate to all standard wells, 100 µl of sample diluent in duplicate to the blank wells, 50 µl of sample diluent to the sample, and 50 µl of each sample in duplicate to the sample wells. Then the detection antibody 50 µl was added to all wells and incubated for 2 h at room temperature. The diluted antirabbit-IgG-HRP (anti-rabbit-immunoglobulin G-horseradish peroxidase) 100 µl was added to all wells together with blank wells. TMB substrate solution 100 µl was added to all wells and incubated for 15 min. at room temperature. Finally, the enzyme reaction was stopped by adding 100 µl of the stop solution to all wells. The absorbance of each microwell was measured at 450 nm using a spectrophotometer. The absorbance of the samples and standard were recorded.

[2] = test system: nitric oxide formation by LPS-stimulated RAW 264.7 murine macrophage cells; assay: Nitric oxide inhibitory assay (Griess nitrite assay); details: Mus musculus, RAW264.7; LPS-stimulated RAW 264.7, 24 h
Procedure: RAW 264.7 murine macrophage cells were stimulated by LPS (Lipopolysaccharide) to produce inflammatory mediators as NO, the produced nitrite (NO2-) was measured using the Griess reagent, RAW 264.7 murine macrophage-like cells were grown in phenol red-free RPMI-1640 containing 10% FBS. Cells were incubated for 24 h with LPS ([…]) in the presence of different concentrations of the plant extract. Then 50 µl of supernatant from each well of cell culture was transferred into 96-well microplates and equal volume of Griess reagent (1% sulfanilamide, 0.1% N-(1-naphthyl)-ethylenediamine hydrochloride, 2.5% H3PO4) was then added to the supernatant at room temperature. The absorbance at 550 nm was determined in UV-Vis microplate reader after 10 min. The concentrations of nitrite were derived from regression analysis using serial dilutions of sodium nitrite as a standard. Percentage of inhibition was calculated based on the ability of the extract to inhibit nitric oxide formation by cells compared with the control (cells in the media without the extract containing triggering agents and DMSO), which was considered as 0% inhibition.

SMILES	IC50 [1]	Caspase-9 level induction (Caspase-9 (human); MCF-7)	Caspase-9 (Conc.) (Caspase-9 (human); breast human carcinoma cell line (MCF-7), control 2.986 ± 0.31)	IC50 [2]
COc1cccc2c1C(=O)c1c(O)c3c(c(O)c1C2=O)C[C@@](O)(C(=O)CO)C[C@@H]3O[C@H]1C[C@H](N)[C@H](O)[C@H](C)O1 [Doxorubicin]	7.75 ± 0.4 mg/L (≈ 14.3 µM)	8.67 folds	25.84 ± 0.39 ng/mL	–
O=C1O[C@H]([C@@H](O)CO)C(O)=C1O [Ascorbic acid]	–	–	–	18.7 ± 0.77 mg/L (≈ 106 µM)
